In one assay the target is KRAS G12D (Homo sapiens, UniProt P01116, G12D). In words: In-vitro RAS-RAF binding assay (RRB), HTRF/FRET. The following applies: read-out: Inhibition of RAS-RAF Binding (in-vitro) KRAS (G12D) IC50. Also noted: Biotinylated KRAS protein amino acids 1-169 (produced at Erasca); made in house. Format: biochemical. A digest of the protocol: (§1)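 Biotinylated KRAS 1-169 (streptavidin-terbium donor, 30 nM) and GST-cRAF RBD (anti-GST d2 acceptor, 30 nM) in HEPES pH 7.5, NaCl, MgCl2, DTT buffer. After compound incubation, SOS1 catalytic domain plus GTPgS drive 60 min nucleotide exchange. HTRF FRET read at equilibrium, in duplicate.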

Another assay deals with T1, KRAS (WT) (Homo sapiens, UniProt P01116).
T1 construct: Biotinylated KRAS protein amino acids 1-169 (produced at Erasca); made in house
The experiment in a line: In-vitro RAS-RAF binding assay (RRB), HTRF/FRET. Format: biochemical. The following applies: read-out: Inhibition of RAS-RAF Binding (in-vitro) KRAS (WT) IC50. Put shortly:
as §1
Background: TR-FRET usually uses a lanthanide donor and a delayed reading to cut background.

The target of assay [1] is T2, KRas G12D fused to HiBiT peptide (Homo sapiens, UniProt P01116, G12D).
T2 construct: endogenous in cells; host or cells: AsPC-1 HiBiT knock-in single clone (Cas9 RNP + ssODN)
In words: ASPC-1 HiBit assay to determine G12D degradation. Type of assay: cell-based. To be noted: AsPC-1 HiBiT cells, 24-hour incubation; read-out: ASPC-1 HiBit DC50 (C). A digest of the protocol: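 Homozygous AsPC-1 clone with N-terminal HiBiT knock-in on endogenous KRas G12D, 24 h compound exposure, top dose 10 μM, 3-fold, 10 points, 1% DMSO. Lytic HiBiT luminescence normalised to DMSO and inhibitor controls gives % degradation; DC50 from 4-parameter fit after hook-effect points removed.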
For orientation: The HiBiT peptide binds its large partner to form an active luciferase.

[2] abbreviates: Table 2, average of multiple runs of each compound.

Where two headings read alike, the source gives them in different places.

Drawing on US20240293558A1, “KRAS INHIBITOR CONJUGATES” (Erasca, Inc., priority 2021, published 2024), this text covers IC50 and DC50 for two compounds.

The IC50 is the concentration needed to halve the response being measured. Broadly, the DC50 is the concentration at which degradation of the target reaches its halfway point.

T1 sequence (P01116 1-169 isoform P01116-2): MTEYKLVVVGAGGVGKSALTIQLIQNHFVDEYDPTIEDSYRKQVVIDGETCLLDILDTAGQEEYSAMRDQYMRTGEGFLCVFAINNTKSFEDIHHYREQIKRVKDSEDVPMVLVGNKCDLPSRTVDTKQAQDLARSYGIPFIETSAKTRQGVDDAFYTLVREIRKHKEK
Chain of KRAS G12D (P01116 1-169 isoform P01116-2 G12D): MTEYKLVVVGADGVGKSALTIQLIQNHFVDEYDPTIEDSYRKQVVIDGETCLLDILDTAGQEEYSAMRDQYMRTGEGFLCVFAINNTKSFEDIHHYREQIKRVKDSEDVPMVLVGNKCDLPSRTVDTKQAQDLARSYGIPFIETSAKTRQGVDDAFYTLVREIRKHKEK
T2 sequence (P01116 1-188 isoform P01116-2 G12D): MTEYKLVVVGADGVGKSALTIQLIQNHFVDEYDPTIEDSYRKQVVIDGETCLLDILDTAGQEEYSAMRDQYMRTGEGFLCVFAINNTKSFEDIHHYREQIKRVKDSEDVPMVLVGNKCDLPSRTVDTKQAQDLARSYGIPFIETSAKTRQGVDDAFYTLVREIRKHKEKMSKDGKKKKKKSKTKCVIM

For the compound `Cc1ncsc1-c1ccc([C@H](C)NC(=O)[C@@H]2C[C@@H](O)CN2C(=O)[C@@H](NC(=O)CCOCCCN2CCCC2COc2nc(N3CC4CCC(C3)N4)c3cc(Cl)c(-c4ccc(F)c5sc(N)c(C#N)c45)c(F)c3n2)C(C)(C)C)cc1` (stereo partly drawn) [Example 8, (2S,4R)-1-[(2S)-2-[3-[3-[2-[[7-(2-amino-3-cyano-7-fluoro-benzothiophen-4-yl)-6-chloro-4-(3,8-diazabicyclo[3.2.1]octan-3-yl)-8-fluoro-quinazolin-2-yl]oxymethyl]pyrrolidin-1-yl]propoxy]propanoylamino]-3,3-dimethyl-butanoyl]-4-hydroxy-N-[(1S)-1-[4-(4-methylthiazol-5-yl)phenyl]ethyl]pyrrolidine-2-carboxamide], the half-inhibitory concentration (IC50) on KRAS G12D (Table 1) was found to be 11 nM; on KRAS G12D (setting [2]) it was 8.18 nM; on KRAS (WT) (Table 1), 51 nM; at KRAS (WT) (setting [2]), 25.9 nM. Moreover, the half-maximal degradation concentration (DC50) in assay [1] came to 126 nM.

For `C[C@H](NC(=O)[C@@H]1C[C@@H](O)CN1C(=O)[C@@H](NC(=O)CCOCCCN1CCC[C@H]1COc1nc(N2CC3CCC(C2)N3)c2cc(C(F)(F)F)c(-c3ccc(F)c4sc(N)c(C#N)c34)c(F)c2n1)C(C)(C)C)c1ccc(-c2c(F)cccc2F)cc1` (single isomer, unassigned) [Example 20], the IC50 worked out at 8.52 nM on KRAS G12D (setting [2]) and 26.9 nM on KRAS (WT) (setting [2]). For the same compound, in assay [1], the DC50 stood at 22.7 nM.
